Laboratory results taken from ChEMBL document CHEMBL1150783, “In vitro activities of CG400549, a novel FabI inhibitor, against recently isolated clinical staphylococcal strains in Korea” (2007).
≈ marks a conversion by molar mass, not a printed value.

Tests used:
Type in all cases: functional
Staphylococcus aureus [1] = test: Antibacterial activity against methicillin-susceptible Staphylococcus aureus isolate assessed as […] isolates by CLSI dilution method
Staphylococcus sp. [2] = test: Antibacterial activity against methicillin-susceptible coagulase-negative Staphylococcus sp. by CLSI dilution method
Staphylococcus sp. [3] = test: (§1) Antibacterial activity against methicillin-susceptible coagulase-negative Staphylococcus sp. assessed as percent susceptible isolates by CLSI dilution method
Staphylococcus aureus [4] = test: Antibacterial activity against methicillin-resistant Staphylococcus aureus isolate assessed as percent susceptible isolates by CLSI dilution method
Staphylococcus aureus [5] = test: Antibacterial activity against methicillin-susceptible Staphylococcus aureus isolate by CLSI dilution method
Staphylococcus sp. [6] = test: Antibacterial activity against methicillin-resistant coagulase-negative Staphylococcus sp. by CLSI dilution method
Staphylococcus sp. [7] = test: as §1; remark: listed apart in the source
Staphylococcus aureus [8] = test: Antibacterial activity against methicillin-resistant Staphylococcus aureus by CLSI dilution method
Staphylococcus aureus [9] = test: (§2) Antibacterial activity against methicillin-resistant Staphylococcus aureus isolate assessed as percent resistant isolates by CLSI dilution method
Staphylococcus sp. [10] = test: Antibacterial activity against methicillin-resistant coagulase-negative Staphylococcus sp. assessed as percent resistant isolates by CLSI dilution method
Staphylococcus aureus [11] = test: as §2; remark: listed apart in the source
Staphylococcus sp. [12] = test: Antibacterial activity against methicillin-susceptible coagulase-negative Staphylococcus sp. assessed as percent resistant isolates by CLSI dilution method

SMILES | Activity (Staphylococcus aureus [1]) [%] | MIC50 (Staphylococcus sp. [2]) [µg/mL] | MIC90 (Staphylococcus sp. [2]) [µg/mL] | Activity (Staphylococcus sp. [3]) [%] | Activity (Staphylococcus aureus [4]) [%] | MIC50 (Staphylococcus aureus [5]) [µg/mL] | MIC90 (Staphylococcus aureus [5]) [µg/mL] | MIC50 (Staphylococcus sp. [6]) [µg/mL] | MIC90 (Staphylococcus sp. [6]) [µg/mL] | Activity (Staphylococcus sp. [7]) [%] | MIC50 (Staphylococcus aureus [8]) [µg/mL] | MIC90 (Staphylococcus aureus [8]) [µg/mL] | Activity (Staphylococcus aureus [9]) [%] | Activity (Staphylococcus sp. [10]) [%] | Activity (Staphylococcus aureus [11]) [%] | Activity (Staphylococcus sp. [12]) [%]
CC(=O)NC[C@H]1CN(c2ccc(N3CCOCC3)c(F)c2)C(=O)O1 [LINEZOLID] | 100 | 1 (≈ 2.96 µM) | 2 (≈ 5.93 µM) | 100 | 100 | 4 (≈ 11.9 µM) | 4 (≈ 11.9 µM) | 1 (≈ 2.96 µM) | 2 (≈ 5.93 µM) | 100 | 2 (≈ 5.93 µM) | 2 (≈ 5.93 µM) |  |  |  | 
Cc1onc(-c2ccccc2)c1C(=O)N[C@@H]1C(=O)N2[C@@H]1SC(C)(C)[C@@H]2C(=O)O [OXACILLIN] | 100 | 0.12 (≈ 0.299 µM) | 0.25 (≈ 0.623 µM) | 0 | 0 | 0.5 (≈ 1.25 µM) | 0.5 (≈ 1.25 µM) | 32 (≈ 79.7 µM) | > 128 | 100 | > 128 | > 128 | 0 | 100 | 100 | 0
CN(C)[C@@H]1C(O)=C(C(N)=O)C(=O)[C@@]2(O)C(O)=C3C(=O)c4c(O)cccc4[C@@](C)(O)[C@H]3C[C@@H]12 [TETRACYCLINE] | 88 | 0.5 (≈ 1.13 µM) | 64 (≈ 144 µM) | 67 | 25 | 1 (≈ 2.25 µM) | 32 (≈ 72 µM) | 2 (≈ 4.5 µM) | 128 (≈ 288 µM) | 78 | 64 (≈ 144 µM) | 128 (≈ 288 µM) | 12 | 31 | 75 | 22
CN[C@H](CC(C)C)C(=O)N[C@H]1C(=O)N[C@@H](CC(N)=O)C(=O)N[C@H]2C(=O)N[C@H]3C(=O)N[C@H](C(=O)N[C@H](C(=O)O)c4cc(O)cc(O)c4-c4cc3ccc4O)[C@H](O)c3ccc(c(Cl)c3)Oc3cc2cc(c3O[C@@H]2O[C@H](CO)[C@@H](O)[C@H](O)[C@H]2O[C@H]2C[C@](C)(N)[C@H](O)[C@H](C)O2)Oc2ccc(cc2Cl)[C@H]1O [VANCOMYCIN] | 100 | 1 (≈ 0.69 µM) | 2 (≈ 1.38 µM) | 99 | 100 | 1 (≈ 0.69 µM) | 1 (≈ 0.69 µM) | 1 (≈ 0.69 µM) | 2 (≈ 1.38 µM) | 100 | 1 (≈ 0.69 µM) | 1 (≈ 0.69 µM) | 0 | 0 | 0 | 0
